Laboratory results as given in ChEMBL document CHEMBL2440076, “New triarylpyrazoles as broad-spectrum anticancer agents: design, synthesis, and biological evaluation” (Eur J Med Chem, 2013).

What was measured:
Format in all cases: functional
[1] = tested on: MDA-MB-435; assay: Growth inhibition of human MDA-MB-435 cells assessed as cell growth at 3X10'-6 M after 48 hrs by sulforhodamine B assay; conditions: MDA-MB-435, 48 h, read-out: Activity
[2] = tested on: K562; assay: Growth inhibition of human K562 cells assessed as cell growth at 3X10'-9 M after 48 hrs by sulforhodamine B assay; conditions: K562, 48 h, read-out: Activity
[3] = tested on: U-251; assay: Growth inhibition of human U251 cells assessed as cell growth at 3X10'-7 M after 48 hrs by sulforhodamine B assay; conditions: U-251, 48 h, read-out: Activity
[4] = tested on: CAKI-1; assay: Growth inhibition of human CAKI-1 cells assessed as cell growth at 3X10'-9 M after 48 hrs by sulforhodamine B assay; conditions: CAKI-1, 48 h, read-out: Activity
[5] = tested on: BT-549; assay: Growth inhibition of human BT549 cells assessed as cell growth at 3X10'-7 M after 48 hrs by sulforhodamine B assay; conditions: BT-549, 48 h, read-out: Activity
[6] = tested on: CCRF-CEM; assay: Growth inhibition of human CCRF-CEM cells assessed as cell growth at 3X10'-8 M after 48 hrs by sulforhodamine B assay; conditions: read-out: Activity
[7] = tested on: HT-29; assay: Growth inhibition of human HT-29 cells assessed as cell growth at 3X10'-8 M after 48 hrs by sulforhodamine B assay; conditions: HT-29, 48 h, read-out: Activity
[8] = tested on: A498; assay: Growth inhibition of human A498 cells assessed as cell growth at 3X10'-7 M after 48 hrs by sulforhodamine B assay; conditions: A498, 48 h, read-out: Activity
[9] = tested on: HCT-116; assay: Growth inhibition of human HCT116 cells assessed as cell growth at 3X10'-7 M after 48 hrs by sulforhodamine B assay; conditions: HCT-116, 48 h, read-out: Activity
[10] = tested on: OVCAR-3; assay: Growth inhibition of human OVCAR3 cells assessed as cell growth at 3X10'-5 M after 48 hrs by sulforhodamine B assay; conditions: OVCAR-3, 48 h, read-out: Activity
[11] = tested on: NCI-H226; assay: Growth inhibition of human NCI-H226 cells assessed as cell growth at 3X10'-7 M after 48 hrs by sulforhodamine B assay; conditions: NCI-H226, 48 h, read-out: Activity
[12] = tested on: SF-539; assay: Growth inhibition of human SF539 cells assessed as cell growth at 3X10'-5 M after 48 hrs by sulforhodamine B assay; conditions: SF-539, 48 h, read-out: Activity
[13] = tested on: NCI-H226; assay: Growth inhibition of human NCI-H226 cells assessed as cell growth at 3X10'-5 M after 48 hrs by sulforhodamine B assay; conditions: NCI-H226, 48 h, read-out: Activity
[14] = tested on: NCI-H23; assay: Growth inhibition of human NCI-H23 cells assessed as cell growth at 3X10'-8 M after 48 hrs by sulforhodamine B assay; conditions: NCI-H23, 48 h, read-out: Activity
[15] = tested on: UACC-62; assay: Growth inhibition of human UACC62 cells assessed as cell growth at 3X10'-7 M after 48 hrs by sulforhodamine B assay; conditions: UACC-62, 48 h, read-out: Activity
[16] = tested on: HL-60(TB); assay: Growth inhibition of human HL-60(TB) cells assessed as cell growth at 3X10'-5 M after 48 hrs by sulforhodamine B assay; conditions: HL-60, 48 h, read-out: Activity
[17] = tested on: NCI-H460; assay: Growth inhibition of human NCI-H460 cells assessed as cell growth at 3X10'-5 M after 48 hrs by sulforhodamine B assay; conditions: NCI-H460, 48 h, read-out: Activity
[18] = tested on: U-251; assay: Growth inhibition of human U251 cells assessed as cell growth at 3X10'-5 M after 48 hrs by sulforhodamine B assay; conditions: U-251, 48 h, read-out: Activity
[19] = tested on: Malme-3M; assay: Growth inhibition of human MALME-3M cells assessed as cell growth at 3X10'-6 M after 48 hrs by sulforhodamine B assay; conditions: read-out: Activity
[20] = tested on: NCI-H322M; assay: Growth inhibition of human NCI-H322M cells assessed as cell growth at 3X10'-9 M after 48 hrs by sulforhodamine B assay; conditions: read-out: Activity
[21] = tested on: COLO 205; assay: Growth inhibition of human COLO205 cells assessed as cell growth at 3X10'-9 M after 48 hrs by sulforhodamine B assay; conditions: COLO 205, 48 h, read-out: Activity
[22] = Growth inhibition of human HCC2998 cells assessed as cell growth at 3X10'-7 M after 48 hrs by sulforhodamine B assay; conditions: HCC 2998, 48 h, read-out: Activity
[23] = tested on: MDA-MB-231; assay: Growth inhibition of human MDA-MB-231 cells assessed as cell growth at 3X10'-9 M after 48 hrs by sulforhodamine B assay; conditions: MDA-MB-231, 48 h, read-out: Activity
[24] = tested on: HCT-15; assay: Growth inhibition of human HCT15 cells assessed as cell growth at 3X10'-6 M after 48 hrs by sulforhodamine B assay; conditions: HCT-15, 48 h, read-out: Activity
[25] = tested on: UACC-257; assay: Growth inhibition of human UACC257 cells assessed as cell growth at 3X10'-7 M after 48 hrs by sulforhodamine B assay; conditions: UACC-257, 48 h, read-out: Activity
[26] = Growth inhibition of human HCC2998 cells assessed as cell growth at 3X10'-8 M after 48 hrs by sulforhodamine B assay; conditions: HCC 2998, 48 h, read-out: Activity
[27] = tested on: COLO 205; assay: Growth inhibition of human COLO205 cells assessed as cell growth at 3X10'-6 M after 48 hrs by sulforhodamine B assay; conditions: COLO 205, 48 h, read-out: Activity
[28] = tested on: K562; assay: Growth inhibition of human K562 cells assessed as cell growth at 3X10'-6 M after 48 hrs by sulforhodamine B assay; conditions: K562, 48 h, read-out: Activity

Compound	growth at 3 µM [1] [%]	growth at 0.003 µM [2] [%]	growth at 0.3 µM [3] [%]	growth at 0.003 µM [4] [%]	growth at 0.3 µM [5] [%]	growth at 0.03 µM [6] [%]	growth at 0.03 µM [7] [%]	growth at 0.3 µM [8] [%]	growth at 0.3 µM [9] [%]	growth at 30 µM [10] [%]	growth at 0.3 µM [11] [%]	growth at 30 µM [12] [%]	growth at 30 µM [13] [%]	growth at 0.03 µM [14] [%]	growth at 0.3 µM [15] [%]	growth at 30 µM [16] [%]	growth at 30 µM [17] [%]	growth at 30 µM [18] [%]	growth at 3 µM [19] [%]	growth at 0.003 µM [20] [%]	further results
O=C(Nc1cccc(-n2cc(-c3ccncc3)c(-c3ccc(Cl)c(O)c3)n2)c1)Nc1ccc(Cl)c(Cl)c1	14	100	100	93	106	98	104	94	99	-37	94	-34	12	93	91	1	-58	-28	10	95	growth at 0.003 µM [21]: 100%; growth at 0.3 µM [22]: 115%; growth at 0.003 µM [23]: 102%; growth at 3 µM [24]: 14%; growth at 0.3 µM [25]: 93%; growth at 0.03 µM [26]: 104%; growth at 3 µM [27]: 61%; growth at 3 µM [28]: 16%
O=C(Nc1cccc(-n2cc(-c3ccncc3)c(-c3ccc(Cl)c(O)c3)n2)c1)Nc1cccc(C(F)(F)F)c1	26	94	97	98	102	96	99	80	98	-25	98	-43	20	94	92	1	-1	-48	37	95	growth at 0.003 µM [21]: 101%; growth at 0.3 µM [22]: 106%; growth at 0.003 µM [23]: 103%; growth at 3 µM [24]: 27%; growth at 0.3 µM [25]: 92%; growth at 0.03 µM [26]: 97%; growth at 3 µM [27]: 90%; growth at 3 µM [28]: 22%
COc1cc(-c2nn(-c3cccc(NC(=O)Nc4ccc(Cl)c(C(F)(F)F)c4)c3)cc2-c2ccncc2)ccc1Cl	-36	110	90	92	109	95	106	76	99	-46	85	-80	3	101	89	6	-28	-58	-16	93	growth at 0.003 µM [21]: 106%; growth at 0.3 µM [22]: 101%; growth at 0.003 µM [23]: 89%; growth at 3 µM [24]: 18%; growth at 0.3 µM [25]: 91%; growth at 0.03 µM [26]: 107%; growth at 3 µM [27]: -49%; growth at 3 µM [28]: 12%
